{
  "source": "patent US7393868B2",
  "about": "“AMPA receptor potentiators” (Eli Lilly and Company, priority 2005, dated 2008)",
  "data": [
    {"target": "T1, human iGluR4 (Homo sapiens, UniProt P48058)", "T1 construct": "expressed in transfected cells; host or cells: HEK293", "T1 sequence (P48058 21-902)": "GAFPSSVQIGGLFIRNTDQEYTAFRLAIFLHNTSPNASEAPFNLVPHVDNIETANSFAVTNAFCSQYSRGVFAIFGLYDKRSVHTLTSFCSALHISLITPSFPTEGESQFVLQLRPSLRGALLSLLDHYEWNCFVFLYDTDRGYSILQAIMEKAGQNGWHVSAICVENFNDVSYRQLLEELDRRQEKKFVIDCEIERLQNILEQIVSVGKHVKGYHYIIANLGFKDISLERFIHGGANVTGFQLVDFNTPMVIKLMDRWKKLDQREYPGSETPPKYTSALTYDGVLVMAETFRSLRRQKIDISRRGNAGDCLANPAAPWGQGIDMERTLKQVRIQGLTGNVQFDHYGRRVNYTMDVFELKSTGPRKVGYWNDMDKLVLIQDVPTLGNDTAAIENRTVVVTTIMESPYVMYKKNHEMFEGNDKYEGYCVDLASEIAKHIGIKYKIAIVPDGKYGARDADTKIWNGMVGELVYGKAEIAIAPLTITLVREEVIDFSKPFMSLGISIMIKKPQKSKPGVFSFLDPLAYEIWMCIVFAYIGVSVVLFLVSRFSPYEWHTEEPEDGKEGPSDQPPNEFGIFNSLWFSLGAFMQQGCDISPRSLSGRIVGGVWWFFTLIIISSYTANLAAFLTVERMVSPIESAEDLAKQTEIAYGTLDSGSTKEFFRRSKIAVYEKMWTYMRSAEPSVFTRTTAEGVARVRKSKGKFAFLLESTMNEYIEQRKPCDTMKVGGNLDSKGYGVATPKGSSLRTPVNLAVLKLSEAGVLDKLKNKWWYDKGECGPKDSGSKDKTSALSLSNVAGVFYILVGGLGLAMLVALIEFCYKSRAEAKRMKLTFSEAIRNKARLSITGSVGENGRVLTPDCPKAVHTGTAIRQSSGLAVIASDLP", "test": "Whole-cell voltage clamp potentiation of glutamate-evoked current in HEK293 cells stably expressing human iGluR4", "format": "cell-based", "settings": "whole-cell voltage clamp at −60 mV, potentiation of current evoked by 1 mM glutamate, Hill equation fit", "excerpt": "HEK293 cells stably expressing human iGluR4(obtained as described in European Patent Application Publication No. EP-A1-0583917) are used in the electrophysiological characterization of AMPA receptor potentiators. The extracellular recording solution contains (in mM): 140 NaCl, 5 KCl, 10 HEPES, 1 MgCl2, 2 CaCl2, 10 glucose, pH=7.4 with NaOH, 295 mOsm kg−1. The intracellular recording solution contains (in mM): 140 CsCl, 1 MgCl2, 10 HEPES, (N-[2-hydroxyethyl]piperazine-N1-[2-ethanesulfonic acid]) 10 EGTA (ethylene-bis(oxyethylene-nitrilo)tetraacetic acid), pH=7.2 with CsOH, 295 mOsm kg−1. With these solutions, recording pipettes have a resistance of 2-3 MΩ. Using the whole-cell voltage clamp technique (Hamill et al. (1981) Pflügers Arch., 391: 85-100), cells are voltage-clamped at −60 mV and control current responses to 1 mM glutamate are evoked. Responses to 1 mM glutamate are then determined in the presence of test compound. Compounds are deemed active in this test if, at a test concentration of 10 μM or less, they produce a greater than 10% increase in the value of the current evoked by 1 mM glutamate.\nIn order to determine the potency of test compounds, the concentration of the test compound, both in the bathing solution and co-applied with glutamate, is increased in half log units until the maximum effect was seen. Data collected in this manner are fit to the Hill equation, yielding an EC50 value, indicative of the potency of the test compound. Reversibility of test compound activity is determined by assessing control glutamate 1 mM responses. Once the control responses to the glutamate challenge are re-established, the potentiation of these responses by 100 μM cyclothiazide is determined by its inclusion in both the bathing solution and the glutamate-containing solution. In this manner, the efficacy of the test compound relative to that of cyclothiazide can be determined.", "units": {"EC50": "nM"}, "values": [
      {"molecule": "CC(C)S(=O)(=O)Nc1ccsc1-c1ccc(-c2cc(F)c(O)c(F)c2)cc1", "note": "[Example 11, Propane-2-sulfonic acid [2-(3′,5′-difluoro-4′-hydroxy-biphenyl-4-yl)-thiophen-3-yl]-amide]", "EC50": 720},
      {"molecule": "COc1cc(C(=O)O)ccc1-c1ccc(-c2ccccc2NS(=O)(=O)C(C)C)cc1", "note": "[Example 46, 2″-Methoxy-2-(propane-2-sulfonylamino)-[1,1′;4′,1″]terphenyl-4″-carboxylic acid]", "EC50": 977},
      {"molecule": "CC(C)S(=O)(=O)Nc1cnccc1-c1ccc(-c2ccc(C(=O)O)cc2C#N)cc1", "note": "[Example 51, 2-Cyano-4′-[3-(propane-2-sulfonylamino)-pyridin-4-yl]-biphenyl-4-carboxylic acid]", "EC50": 2460},
      {"molecule": "CC(C)S(=O)(=O)Nc1ccsc1-c1ccc(-c2cc(F)c(O)c(F)c2C#N)cc1", "note": "[Example 56, Propane-2-sulfonic acid [2-(2′-cyano-3′,5′-difluoro-4′-hydroxy-biphenyl-4-yl)-thiophen-3-yl]-amide]", "EC50": 151},
      {"molecule": "CC(C)S(=O)(=O)Nc1ccsc1-c1ccc(-c2ccc(C(=O)O)cc2C#N)cc1", "note": "[Example 72, 2-Cyano-4′-[3-(propane-2-sulfonylamino)-thiophen-2-yl]-biphenyl-4-carboxylic acid]", "EC50": 188}
    ]}
  ]
}
